Values joined by “and” are separate entries in the source; they are usually repeats but may differ in a detail not shown here. Equal entries are not always repeated.
Legend:
[1] = test system: in vitro BBB model (bEnd.3 cells); assay: Penetration across the in vitro BBB model (bEnd.3 monolayer on Transwell inserts, HPLC); format: in vitro ADME, mouse; settings: bEnd.3 Transwell, n = 6
Method: The lyophilised powders of synthesised molecules (G0K-FP and G1K-FP) as well as free drug (FP) were dissolved in the FBS-free; phenol-free culture media in a concentration of 200 µM. Quantitative analysis of drug and drug-attached dendrons penetration was conducted using HPLC (Agilent technology/1260 infinity, Stockport, UK). The analysis was carried out using a hydrophobic C18 column (150 × 4.6 mm) and a UV-detection wavelength 248 nm which is the λmax of FP [5]. The gradient of eluent of the mobile phase was run from 75:25 to 25:75 of water: acetonitrile over 20 min. The standard curve for each molecule was obtained to calculate the percentage of transported amount across the in vitro BBB model.
To establish an in vitro BBB model, bEnd.3 cells were cultured on microporous membrane (0.4 µm pore size) of 12-Transwell inserts (Fisher Scientific) with complete culture media. TEER values between apical and basolaterl chambers was measured using an Evom voltometer (Sarasota, FL, USA) to determine the day of maximum values indicating tight junction formation. The measurements were taken up to day 8 of culturing and compared to the results of HUVECs which were also cultured into Transwell-clear inserts. Cell-free Transwell inserts were included to exclude the resistance related to the inserts membrane alone. The apical chambers of bEnd.3 culture were then treated with 200 µM of each samples. After 1 and 4 h incubation, 200 µL samples were taken from the basolateral chambers and percentage of permeability calculated according to the following:PMaterial % = ((CAcceptor × VAcceptor)/(CDonor × VDonor)) × 100%(1) where PMaterial %: the percentage of permeability of the tested material, CAcceptor: the concentration of the tested material in basal chamber, VAcceptor: the volume of the culture media in the basal chamber, CDonor: the initial concentration of the tested material in the apical chamber, VDonor: the volume of the culture media in the apical chamber.

γ-secretase enzyme = assay: Quantification of γ-secretase enzyme in C6 glial cells (sandwich ELISA); format: cell-based; settings: 200 µM, 4 h incubation, untreated control 28.43 ± 8.32 pg/mL, n = 6
Method: The C6 glial cells seeded in a density of 5 × 10^4 cells per cm^2 and incubated at 37 °C and 5% CO2. The investigation is based on sandwich enzyme-linked immune-sorbent assay (ELISA) technology using γ-secretase enzyme kit (Abbexa Ltd., Cambridge, UK). C6 glial cells were cultured in 24-well plates at density 5 × 10^4 cells per cm^2, and at confluence, they were treated with 200 μM FP, […]-FP, or […]-FP dissolved in […] media. Wells containing untreated C6 cells were also included as a control. After 4 h incubation, cells were washed with PBS and lysed via freezing to -20 °C and thawing to room temperature 3 times. […] The collected samples were used immediately to avoid any degradation and denaturalisation. The standard curve of γ-secretase standards (supplied with kit) was constructed and the concentration of γ-secretase was calculated for each sample.

[2] = parameters: method as in PMID 7736686; settings: cited from earlier work
[3] = parameters: method as in PMID 7736686; settings: cited from earlier work; remark: listed apart in the source
γ-secretase = test system: γ-secretase; parameters: method as in PMID 20009055, PMID 18450517; settings: at the target tissue site; cited from earlier work
bEnd.3 cells monolayer = test system: bEnd.3 cells monolayer; parameters: method as in PMID 24280275; settings: cited from earlier work
[4] = test system: brain endothelial cells and Caco-2 cell monolayers; parameters: method as in PMID 23089576; settings: cited from earlier work
[5] = 1 h after applying 200 µM to apical chamber
[6] = 4 h after applying 200 µM to apical chamber

CC(C(=O)O)c1ccc(-c2ccccc2)c(F)c1 (stereo not drawn) [FP, Flurbiprofen]
% Of Permeability (Mean ± SD) [1, 5]: 2.71 ± 1.52% | % Of Permeability (Mean ± SD) [1, 6]: 8.50 ± 1.32% | % Of Permeability (Mean ± SD) ([1]; 4 h after applying 200 µM to apical chamber, listed as Free FP): less than 9% | % Of Permeability (Mean ± SD) ([1]; 4 h after applying 200 µM to apical chamber, listed as free drug): not more than 8.5% | γ-Secretase Enzyme Concentration (Mean ± SD) (γ-secretase enzyme): 8.2 pg/mL and 8.20 ± 3.80 pg/mL | biological half-life [2]: 4 h | time to full excretion from the body [2]: ≤ 24 h | water solubility [3]: poorly water-soluble | required therapeutic concentration for pharmacologically-significant effect on γ-secretase activity (γ-secretase): 150–250 µM | diffusion through bEnd.3 cells monolayer (bEnd.3 cells monolayer): approximately 10%

paclitaxel
fold greater permeability than paclitaxel alone [4]: 12 fold

CC(C(=O)NCCCC[C@H](NC(=O)C(C)c1ccc(-c2ccccc2)c(F)c1)C(=O)N[C@@H](Cc1ccccc1)C(=O)O)c1ccc(-c2ccccc2)c(F)c1 (stereo partly drawn) [G0K-FP, Generation 0 lysine dendron-2Flurbiprofen]
% Of Permeability (Mean ± SD) [1, 5]: 5.3% and 5.31 ± 2.73% | % Of Permeability (Mean ± SD) [1, 6]: 12.5% and 12.48 ± 3.42%

CC(C(=O)NCCCC[C@H](NC(=O)C(C)c1ccc(-c2ccccc2)c(F)c1)C(=O)NCCCC[C@H](NC(=O)[C@H](CCCCNC(=O)C(C)c1ccc(-c2ccccc2)c(F)c1)NC(=O)C(C)c1ccc(-c2ccccc2)c(F)c1)C(=O)N[C@@H](Cc1ccccc1)C(=O)O)c1ccc(-c2ccccc2)c(F)c1 (stereo partly drawn) [G1K-FP, Generation 1 lysine dendron-4Flurbiprofen]
% Of Permeability (Mean ± SD) [1, 5]: 4.3% and 4.32 ± 1.05% | % Of Permeability (Mean ± SD) [1, 6]: 14.8% and 14.79 ± 2.06%
